Measurements: patent publication US9707233B2, “Heterocyclylamines as PI3K inhibitors” (Incyte Corporation, priority 2011, dated 2017)
Counter-ions that a name gives are not always drawn.

Biological target: PI3Kδ (p110δ/p85α) (Homo sapiens (Human), UniProt O00329)
Experiment: PI3Kδ scintillation proximity assay (Example A3)
Format: biochemical
Settings: 20 μM ATP, 20 μM PIP2, 4 nM PI3Kδ; read-out: PI3Kδ SPA IC50
Protocol: [γ-^33P]ATP (10 mCi/mL) was purchased from Perkin-Elmer (Waltham, Mass.). […] PI3Kδ (p110δ/p85α) was purchased from Millipore (Bedford, Mass.). ATP, MgCl2, DTT, EDTA, MOPS and CHAPS were purchased from Sigma-Aldrich (St. Louis, Mo.). Wheat Germ Agglutinin (WGA) YSi SPA Scintillation Beads was purchased from GE healthcare life sciences (Piscataway, N.J.).
The kinase reaction was conducted in polystyrene 384-well matrix white plate from Thermo Fisher Scientific in a final volume of 25 μL. Inhibitors were first diluted serially in DMSO and added to the plate wells before the addition of other reaction components. The final concentration of DMSO in the assay was 0.5%. The PI3K assays were carried out at room temperature in 20 mM MOPS, pH 6.7, 10 mM MgCl2, 5 mM DTT and CHAPS 0.03%. Reactions were initiated by the addition of ATP, the final reaction mixture consisted of 20 μM PIP2, 20 μM ATP, 0.2 μCi [γ-^33P]ATP, 4 nM PI3Kδ. […] 25 mM EDTA, 400 μM ATP. The final concentration of SPA beads was 1.0 mg/mL. After the plate sealing, plates were shaken overnight at room temperature and centrifuged at 1800 rpm for 10 minutes, the radioactivity of the product was determined by scintillation counting on Topcount (Perkin-Elmer). IC50 determination was performed by fitting the curve of percent control activity versus the log of the inhibitor concentration using the GraphPad Prism 3.0 software.

Sequence of PI3Kδ (p110δ/p85α) (O00329 whole entry): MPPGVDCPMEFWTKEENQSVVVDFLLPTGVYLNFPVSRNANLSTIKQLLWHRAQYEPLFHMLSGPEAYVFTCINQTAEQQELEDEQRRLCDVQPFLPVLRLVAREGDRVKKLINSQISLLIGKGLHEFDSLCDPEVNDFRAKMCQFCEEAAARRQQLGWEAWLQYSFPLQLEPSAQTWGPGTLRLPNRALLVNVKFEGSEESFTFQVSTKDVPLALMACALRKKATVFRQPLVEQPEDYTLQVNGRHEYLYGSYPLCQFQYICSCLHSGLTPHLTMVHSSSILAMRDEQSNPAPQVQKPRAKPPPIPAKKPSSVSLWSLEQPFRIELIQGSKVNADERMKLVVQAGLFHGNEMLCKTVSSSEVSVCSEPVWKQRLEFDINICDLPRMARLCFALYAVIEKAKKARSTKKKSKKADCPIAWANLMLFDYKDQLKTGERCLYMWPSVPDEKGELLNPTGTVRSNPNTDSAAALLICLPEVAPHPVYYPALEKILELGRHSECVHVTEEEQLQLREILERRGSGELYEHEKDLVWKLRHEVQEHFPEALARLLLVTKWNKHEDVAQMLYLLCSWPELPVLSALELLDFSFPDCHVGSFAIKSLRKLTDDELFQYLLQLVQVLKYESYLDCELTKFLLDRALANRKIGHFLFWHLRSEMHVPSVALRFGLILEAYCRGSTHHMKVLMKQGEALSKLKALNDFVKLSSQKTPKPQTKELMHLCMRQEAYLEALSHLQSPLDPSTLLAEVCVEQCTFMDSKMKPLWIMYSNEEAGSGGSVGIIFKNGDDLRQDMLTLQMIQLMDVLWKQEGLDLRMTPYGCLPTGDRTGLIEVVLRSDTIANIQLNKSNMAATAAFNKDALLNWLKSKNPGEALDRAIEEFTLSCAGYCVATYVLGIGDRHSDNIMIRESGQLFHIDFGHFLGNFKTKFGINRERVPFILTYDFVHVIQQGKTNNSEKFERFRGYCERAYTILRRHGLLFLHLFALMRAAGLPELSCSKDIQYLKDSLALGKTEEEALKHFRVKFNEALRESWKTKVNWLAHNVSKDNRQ
Sequence of PI3Kδ (p110δ/p85α) (P27986 whole entry partner): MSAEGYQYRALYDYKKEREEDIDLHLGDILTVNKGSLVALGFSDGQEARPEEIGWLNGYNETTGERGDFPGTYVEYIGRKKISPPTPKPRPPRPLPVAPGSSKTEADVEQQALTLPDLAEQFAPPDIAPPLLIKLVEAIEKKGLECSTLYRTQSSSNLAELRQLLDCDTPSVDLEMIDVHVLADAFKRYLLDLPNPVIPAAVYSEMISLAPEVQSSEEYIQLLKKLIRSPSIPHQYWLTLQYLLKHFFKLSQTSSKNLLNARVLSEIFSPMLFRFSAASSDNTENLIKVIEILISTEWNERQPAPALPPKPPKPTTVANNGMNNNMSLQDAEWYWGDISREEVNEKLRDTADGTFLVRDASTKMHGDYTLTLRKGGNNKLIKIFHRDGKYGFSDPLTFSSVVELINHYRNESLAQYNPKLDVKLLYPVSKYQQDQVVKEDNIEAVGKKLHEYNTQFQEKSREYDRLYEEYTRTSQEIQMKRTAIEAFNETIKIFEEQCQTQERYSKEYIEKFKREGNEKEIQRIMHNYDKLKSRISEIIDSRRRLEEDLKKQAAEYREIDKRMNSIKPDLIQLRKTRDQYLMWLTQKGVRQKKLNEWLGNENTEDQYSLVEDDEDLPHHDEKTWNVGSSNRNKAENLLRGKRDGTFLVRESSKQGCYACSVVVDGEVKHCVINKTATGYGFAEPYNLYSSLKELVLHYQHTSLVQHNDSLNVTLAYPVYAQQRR

IC50 | Compound
≤ 10 nM | CCOc1c(C(C)n2nc(C)c3c(N)ncnc32)cc(Cl)c(C#N)c1C1CN(S(=O)(=O)C2CC2)C1 (single isomer, unassigned) [Example 251, 4-[1-(4-Amino-3-methyl-1H-pyrazolo[3,4-d]pyrimidin-1-yl)ethyl]-6-chloro-2-[1-(cyclopropylsulfonyl)azetidin-3-yl]-3-ethoxybenzonitrile]
≤ 10 nM | COc1c(C(C)n2nc(C)c3c(N)ncnc32)cc(Cl)c(C)c1-c1cnn(CC(=O)N(C)C)c1 (single isomer, unassigned) [Example 206, 2-(4-(3-(1-(4-amino-3-methyl-1H-pyrazolo[3,4-d]pyrimidin-1-yl)ethyl)-5-chloro-2-methoxy-6-methylphenyl)-1H-pyrazol-1-yl)-N,N-dimethylacetamide]
≤ 10 nM | COc1c(C(C)n2nc(C)c3c(N)ncnc32)cc(Cl)c(C)c1-c1cncnc1 (single isomer, unassigned) [Example 168, 1-(1-(5-chloro-2-methoxy-4-methyl-3-(pyrimidin-5-yl)phenyl)ethyl)-3-methyl-1H-pyrazolo[3,4-d]pyrimidin-4-amine]
≤ 10 nM | COc1c(C(C)n2nc(C)c3c(N)ncnc32)cc(Cl)c(C)c1-c1ccc(N)nc1 (single isomer, unassigned) [Example 171, 1-(1-(3-(6-aminopyridin-3-yl)-5-chloro-2-methoxy-4-methylphenyl)ethyl)-3-methyl-1H-pyrazolo[3,4-d]pyrimidin-4-amine]
> 500 nM | CCOc1c(C(C)n2nc(C)c3c(N)ncnc32)cc(Cl)c(F)c1C1CNC(=O)O1 (single isomer, unassigned) [Example 358, 5-{3-[1-(4-amino-3-methyl-1H-pyrazolo[3,4-d]pyrimidin-1-yl)ethyl]-5-chloro-2-ethoxy-6-fluorophenyl}-1,3-oxazolidin-2-one]
≤ 10 nM | CCOc1c(C(C)n2nc(C)c3c(N)ncnc32)cc(Cl)c(C#N)c1C1CN(C(=O)NC)C1 (stereo not shown) [Example 257, 3-{3-[1-(4-Amino-3-methyl-1H-pyrazolo[3,4-d]pyrimidin-1-yl)ethyl]-5-chloro-6-cyano-2-ethoxyphenyl}-N-methylazetidine-1-carboxamide]
≤ 10 nM | COc1c(C(C)n2nc(C)c3c(N)ncnc32)cc(Cl)c(C)c1-c1cncc(C(=O)N(C)CCN)c1 (single isomer, unassigned) [Example 178, 5-(3-(1-(4-amino-3-methyl-1H-pyrazolo[3,4-d]pyrimidin-1-yl)ethyl)-5-chloro-2-methoxy-6-methylphenyl)-N-(2-aminoethyl)-N-methylnicotinamide]
≤ 10 nM | CCOc1c(C(C)n2nc(C)c3c(N)ncnc32)cc(Cl)c(F)c1C1CN(CC(N)=O)C1 (stereo not shown) [Example 148, 2-(3-{3-[1-(4-Amino-3-methyl-1H-pyrazolo[3,4-d]pyrimidin-1-yl)ethyl]-5-chloro-2-ethoxy-6-fluorophenyl}azetidin-1-yl)acetamide]
≤ 10 nM | COc1c(C(C)n2nc(C(F)F)c3c(N)ncnc32)cc(C#N)c(F)c1C1CN(CCO)C1 (racemic) [Example 78, 5-{1-[4-Amino-3-(difluoromethyl)-1H-pyrazolo[3,4-d]pyrimidin-1-yl]ethyl}-2-fluoro-3-[1-(2-hydroxyethyl)azetidin-3-yl]-4-methoxybenzonitrile]
≤ 10 nM | CCOc1c(C(C)n2nc(C)c3c(N)ncnc32)cc(Cl)c(C#N)c1C1CN(C2CCC2)C1 (single isomer, unassigned) [Example 218, 4-[1-(4-Amino-3-methyl-1H-pyrazolo[3,4-d]pyrimidin-1-yl)ethyl]-6-chloro-2-(1-cyclobutylazetidin-3-yl)-3-ethoxybenzonitrile]
50 to 200 nM | COc1c(C(C)n2nc(C)c3c(N)ncnc32)cc(Cl)c(C)c1-c1cnn(CCO)c1 (single isomer, unassigned) [20 (2nd peak), 2-(4-(3-(1-(4-Amino-3-methyl-1H-pyrazolo[3,4-d]pyrimidin-1-yl)ethyl)-5-chloro-2-methoxy-6-methylphenyl)-1H-pyrazol-1-yl)ethanol]
≤ 10 nM | CCC(=O)N1CC(c2c(C#N)c(Cl)cc(C(C)n3nc(C)c4c(N)ncnc43)c2OC)C1 (single isomer, unassigned) [Example 282, 4-[1-(4-Amino-3-methyl-1H-pyrazolo[3,4-d]pyrimidin-1-yl)ethyl]-6-chloro-3-methoxy-2-(1-propionylazetidin-3-yl)benzonitrile]
≤ 10 nM | CCOc1c(C(C)n2nc(C)c3c(N)ncnc32)cc(Cl)c(C#N)c1C1CN(CC(C)(C)O)C1 (stereo not shown) [Example 222, 4-[1-(4-Amino-3-methyl-1H-pyrazolo[3,4-d]pyrimidin-1-yl)ethyl]-6-chloro-3-ethoxy-2-[1-(2-hydroxy-2-methylpropyl)azetidin-3-yl]benzonitrile]
≤ 10 nM | CCOc1c(C(C)n2nc(C)c3c(N)ncnc32)cc(Cl)c(C)c1-c1ccc(C(=O)NC)nc1 (single isomer, unassigned) [Example 199, 5-(3-(1-(4-amino-3-methyl-1H-pyrazolo[3,4-d]pyrimidin-1-yl)ethyl)-5-chloro-2-ethoxy-6-methylphenyl)-N-methylpicolinamide]
≤ 10 nM | COc1c(C(C)n2nc(C)c3c(N)ncnc32)cc(Cl)c(Cl)c1C1CN(C(C)=O)C1 (single isomer, unassigned) [Example 306, 1-{1-[3-(1-Acetylazetidin-3-yl)-4,5-dichloro-2-methoxyphenyl]ethyl}-3-methyl-1H-pyrazolo[3,4-d]pyrimidin-4-amine]
≤ 10 nM | CCOc1c(C(C)n2nc(CF)c3c(N)ncnc32)cc(Cl)c(C)c1-c1ccc(C(=O)N(C)C)nc1 (racemic) [Example 86, 5-(3-{1-[4-Amino-3-(fluoromethyl)-1H-pyrazolo[3,4-d]pyrimidin-1-yl]ethyl}-5-chloro-2-ethoxy-6-methylphenyl)-N,N-dimethylpyridine-2-carboxamide bis(trifluoroacetate)]
≤ 10 nM | CCN1CC(c2c(C#N)c(Cl)cc(C(C)n3nc(C)c4c(N)ncnc43)c2OC)C1 (single isomer, unassigned) [Example 263, 4-[1-(4-Amino-3-methyl-1H-pyrazolo[3,4-d]pyrimidin-1-yl)ethyl]-6-chloro-2-(1-ethylazetidin-3-yl)-3-methoxybenzonitrile]
≤ 10 nM | COc1c(C(C)n2nc(C)c3c(N)ncnc32)cc(Cl)c(C)c1-c1ccc(C(=O)N(C)C)c(F)c1 (single isomer, unassigned) [Example 21, 3′-[1-(4-Amino-3-methyl-1H-pyrazolo[3,4-d]pyrimidin-1-yl)ethyl]-5′-chloro-3-fluoro-2′-methoxy-N,N,6′-trimethylbiphenyl-4-carboxamide trifluoroacetate]
≤ 10 nM | CCOc1c(C(C)n2nc(C)c3c(N)ncnc32)cc(Cl)c(C#N)c1C1CN(C(=O)C(C)C)C1 (single isomer, unassigned) [Example 244, 4-[1-(4-Amino-3-methyl-1H-pyrazolo[3,4-d]pyrimidin-1-yl)ethyl]-6-chloro-3-ethoxy-2-(1-isobutyrylazetidin-3-yl)benzonitrile]
≤ 10 nM | COc1c(C(C)n2nc(C)c3c(N)ncnc32)cc(Cl)c(C#N)c1C1CN(C(=O)OC(C)C)C1 (single isomer, unassigned) [Example 291, Isopropyl 3-{3-[1-(4-amino-3-methyl-1H-pyrazolo[3,4-d]pyrimidin-1-yl)ethyl]-5-chloro-6-cyano-2-methoxyphenyl}azetidine-1-carboxylate]
≤ 10 nM | COc1c(C(C)n2ccc(=O)c3c(N)ncnc32)cc(Cl)c(C)c1-c1cccc(C(=O)N(C)C)c1 (racemic) [Example 30, 3′-[1-(4-Amino-5-oxopyrido[2,3-d]pyrimidin-8(5H)-yl)ethyl]-5′-chloro-2′-methoxy-N,N,6′-trimethylbiphenyl-3-carboxamide bis(trifluoroacetate)]
50 to 200 nM | CCOc1c(C(C)n2nc(C)c3c(N)ncnc32)cc(Cl)c(F)c1C1CNC(=O)O1 (single isomer, unassigned) [Example 355, 5-{3-[1-(4-amino-3-methyl-1H-pyrazolo[3,4-d]pyrimidin-1-yl)ethyl]-5-chloro-2-ethoxy-6-fluorophenyl}-1,3-oxazolidin-2-one]

Compound | IC50
CCOc1c(C(C)n2nc(C)c3c(N)ncnc32)cc(Cl)c(F)c1C1CNC(=O)C1 (single isomer, unassigned) [Example 347, 4-{3-[1-(4-amino-3-methyl-1H-pyrazolo[3,4-d]pyrimidin-1-yl)ethyl]-5-chloro-2-ethoxy-6-fluorophenyl}pyrrolidin-2-one] | ≤ 10 nM
CCOc1c(C(C)n2nc(C)c3c(N)ncnc32)cc(Cl)c(F)c1C1CNC(=O)C1 (single isomer, unassigned) [Example 345, 4-{3-[1-(4-amino-3-methyl-1H-pyrazolo[3,4-d]pyrimidin-1-yl)ethyl]-5-chloro-2-ethoxy-6-fluorophenyl}pyrrolidin-2-one] | 50 to 200 nM
COc1c(C(C)n2ccc(=O)c3c(N)ncnc32)cc(Cl)c(C)c1-c1ccc(C(=O)N(C)C)nc1 (single isomer, unassigned) [25 (2nd peak), 5-{3-[1-(4-Amino-5-oxopyrido[2,3-d]pyrimidin-8(5H)-yl)ethyl]-5-chloro-2-methoxy-6-methylphenyl}-N,N-dimethylpyridine-2-carboxamide] | ≤ 10 nM
